These are literature values, as cited in patent US8097726B2, “Huperzine a compound for treatment of alzheimer's disease” (priority 2006, dated 2012).

The structures appear in SMILES notation.

The conditions of series [1]: rapidly eliminated from the kidneys.
For series [2] the following is noted: administered orally at 0.2 mg twice a day for 8 weeks; AD patients.

Turning to `C/C=C1\[C@H]2C=C(C)C[C@]1(N)c1ccc(=O)[nH]c1C2` [huperzine A], in series [1], the half-life in plasma was 4 to 5 h. For the same compound, the “patients with significant improvement in memory, cognition and behavior” value in series [2] is given as 58%.
